In PubChem BioAssay (NCI):
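In this assay, cells in 96-well plates receive the compound at five concentrations for 48 hours. Endpoints are linearly interpolated between the surrounding concentrations. TGI: total growth inhibition.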

Legend:
Assay in all cases: NCI tumour cell line growth inhibition, 48 h
ACHN renal = system: ACHN renal
DU-145 prostate = system: DU-145 prostate
HOP-92 NSCLC = system: HOP-92 NSCLC
MDA-MB-231 breast = system: MDA-MB-231 breast
DLD-1 colon = system: DLD-1 colon
DMS 114 small cell lung = system: DMS 114 small cell lung
HOP-18 NSCLC = system: HOP-18 NSCLC
LOX IMVI melanoma = system: LOX IMVI melanoma
M19-MEL melanoma = system: M19-MEL melanoma

SMILES	TGI (ACHN renal)	TGI (DU-145 prostate)	TGI (HOP-92 NSCLC)	TGI (MDA-MB-231 breast)	TGI (DLD-1 colon)	TGI (DMS 114 small cell lung)	TGI (HOP-18 NSCLC)	TGI (LOX IMVI melanoma)	TGI (M19-MEL melanoma)
O=C(c1ccco1)C1CC(c2c(O)ccc3ccccc23)=NN1 (centres undefined)	25 µM	30.8 µM	37.4 µM	37.3 µM	–	–	–	–	–
CC1(C)OC2CC(=O)OCC23C1CC(=O)C1(C)C3CCC2(C)C(c3ccoc3)OC(=O)C3OC321 (centres undefined)	–	–	–	–	> 125 µM	> 125 µM	> 125 µM	> 125 µM	> 125 µM
